Inconclusive results and toxic doses are left out. Rule as the data show it: active = T/C of 150% or more; inactive = T/C below 125%.
Test system: L1210 leukemia ip in BDF1 mice, survival T/C
Assay: NCI In Vivo Anticancer Drug Screen. Data for tumor model L1210 Leukemia (intraperitoneal) in B6D2F1 (BDF1) mice
Conditions: endpoint: mean survival time, higher = longer survival
Procedure, shortened: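 Mice bearing the transplanted tumor received compound or vehicle. Survival of the treated group was divided by that of the vehicle-treated control group to give the ratio.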

[1] = dose: 100.0 mg/kg/injection, schedule: Q01DX001 (ip), vehicle: other
[2] = dose: 100.0 mg/kg/injection, schedule: Q04DX002 (ip), vehicle: Klucel (hydroxypropylcellulose) (HPC)
[3] = dose: 200.0 mg/kg/injection, schedule: Q04DX002 (ip), vehicle: Klucel (hydroxypropylcellulose) (HPC)
[4] = dose: 400.0 mg/kg/injection, schedule: Q04DX002 (ip), vehicle: Klucel (hydroxypropylcellulose) (HPC)
[5] = dose: 100.0 mg/kg/injection, schedule: Q04DX003 (ip), vehicle: saline with Tween-80
[6] = dose: 200.0 mg/kg/injection, schedule: Q04DX003 (ip), vehicle: saline with Tween-80
[7] = dose: 400.0 mg/kg/injection, schedule: Q04DX003 (ip), vehicle: saline with Tween-80
[8] = dose: 100.0 mg/kg/injection, schedule: Q04DX003 (ip), vehicle: saline
[9] = dose: 200.0 mg/kg/injection, schedule: Q04DX003 (ip), vehicle: saline
[10] = dose: 400.0 mg/kg/injection, schedule: Q04DX003 (ip), vehicle: saline
[11] = dose: 100.0 mg/kg/injection, schedule: Q01DX001 (ip), vehicle: saline
[12] = dose: 200.0 mg/kg/injection, schedule: Q01DX001 (ip), vehicle: saline
[13] = dose: 400.0 mg/kg/injection, schedule: Q01DX001 (ip), vehicle: saline
[14] = dose: 100.0 mg/kg/injection, schedule: Q01DX009 (ip), vehicle: Klucel (hydroxypropylcellulose) (HPC)
[15] = dose: 200.0 mg/kg/injection, schedule: Q01DX009 (ip), vehicle: Klucel (hydroxypropylcellulose) (HPC)
[16] = dose: 400.0 mg/kg/injection, schedule: Q01DX009 (ip), vehicle: Klucel (hydroxypropylcellulose) (HPC)
[17] = dose: 100.0 mg/kg/injection, schedule: Q04DX002 (ip), vehicle: saline
[18] = dose: 200.0 mg/kg/injection, schedule: Q04DX002 (ip), vehicle: saline
[19] = dose: 100.0 mg/kg/injection, schedule: Q04DX003 (ip), vehicle: Klucel (hydroxypropylcellulose) (HPC)
[20] = dose: 200.0 mg/kg/injection, schedule: Q04DX003 (ip), vehicle: Klucel (hydroxypropylcellulose) (HPC)
[21] = dose: 400.0 mg/kg/injection, schedule: Q04DX003 (ip), vehicle: Klucel (hydroxypropylcellulose) (HPC)
[22] = dose: 100.0 mg/kg/injection, schedule: Q01DX001 (ip), vehicle: carboxymethylcellulose (CMC)
[23] = dose: 200.0 mg/kg/injection, schedule: Q01DX001 (ip), vehicle: carboxymethylcellulose (CMC)
[24] = dose: 400.0 mg/kg/injection, schedule: Q01DX001 (ip), vehicle: carboxymethylcellulose (CMC)
[25] = dose: 100.0 mg/kg/injection, schedule: Q01DX009 (ip), vehicle: saline with Tween-80
[26] = dose: 200.0 mg/kg/injection, schedule: Q01DX009 (ip), vehicle: saline with Tween-80

Measured: T/C

O=[N+]([O-])c1ccc(N/N=C\c2ccc(OCc3ccccc3)cc2)c([N+](=O)[O-])c1
inactive: [1] 86 % of control

CC(=O)Nc1ccc(NC(=O)Nc2ccc(F)cc2)cc1
inactive: [2] 108 % of control | [3] 118 % of control | [4] 105 % of control

CCOC(=O)CCc1[nH]c2nnc(C)cc2c1[N+](=O)[O-]
inactive: dose: 56.3 mg/kg/injection, schedule: Q04DX002 (ip), vehicle: Klucel (hydroxypropylcellulose) (HPC) 100 % of control | dose: 112.5 mg/kg/injection, schedule: Q04DX002 (ip), vehicle: Klucel (hydroxypropylcellulose) (HPC) 106 % of control | dose: 225.0 mg/kg/injection, schedule: Q04DX002 (ip), vehicle: Klucel (hydroxypropylcellulose) (HPC) 91 % of control

c1ccc(N/N=C(\Sc2ccccc2)c2ccccc2)cc1
inactive: [5] 113 % of control | [6] 102 % of control | [7] 94 % of control

CCOS(=O)O
inactive: [8] 96 % of control | [9] 96 % of control | [10] 98 % of control

CCC1(C)n2c(=O)c3ccccc3c(=O)n21
inactive: dose: 100.0 mg/kg/injection, schedule: Q04DX002 (ip), vehicle: saline with Tween-80 97 % of control | dose: 200.0 mg/kg/injection, schedule: Q04DX002 (ip), vehicle: saline with Tween-80 101 % of control | dose: 400.0 mg/kg/injection, schedule: Q04DX002 (ip), vehicle: saline with Tween-80 90 % of control

CNC(=O)Oc1ccc(C(=O)OCCO)cc1
inactive: [11] 90 % of control | [12] 88 % of control | [13] 88 % of control

COc1ccc(/C=N/NC(=O)/C=C/c2ccccc2)c(OC)c1
inactive: [14] 97 % of control | [15] 98 % of control | [16] 92 % of control

CCCOC(=O)c1ccc(O)cc1
inactive: [14] 87 % of control | [15] 94 % of control | [16] 102 % of control

CN(C)c1ccc(/C=N/Nc2ncnc3nc[nH]c23)cc1
inactive: [5] 98 % of control | [6] 96 % of control | [7] 91 % of control

COc1ccc2c(c1)sc(=N)n2C
inactive: [17] 97 % of control | [18] 93 % of control

O=C(O)c1c(Cl)c(Cl)c(Cl)c(Cl)c1C(=O)Nc1cccc(C(F)(F)F)c1
inactive: [14] 100 % of control | [19] 94 % of control | [15] 97 % of control | [20] 100 % of control | [21] 105 % of control

CC(=O)Nc1c(Br)cc2c(c1Br)C(=O)c1cc(Br)ccc1-2
inactive: [22] 100 % of control | [23] 100 % of control | [24] 100 % of control

Cc1nccc2ccsc12
inactive: dose: 75.0 mg/kg/injection, schedule: Q01DX001 (ip), vehicle: other 105 % of control | dose: 150.0 mg/kg/injection, schedule: Q01DX001 (ip), vehicle: other 102 % of control

O=C(O)c1cccc(C(=O)c2ccc([N+](=O)[O-])cc2)c1
inactive: [11] 97 % of control | [8] 90 % of control | [12] 99 % of control | [9] 102 % of control | [13] 96 % of control | [10] 90 % of control

O=S(=O)(Nc1ccc(CCc2ccc(NS(=O)(=O)c3ccccc3)cc2)cc1)c1ccccc1
inactive: [25] 95 % of control | [26] 98 % of control | dose: 400.0 mg/kg/injection, schedule: Q01DX009 (ip), vehicle: saline with Tween-80 98 % of control

O=C(Nc1ccc(Cl)cc1)c1ccccc1Cl
inactive: [2] 93 % of control | [3] 100 % of control | [4] 100 % of control

Cc1cc([N+](=O)[O-])c(Cl)c([N+](=O)[O-])c1
inactive: [22] 91 % of control | [23] 89 % of control | [24] 100 % of control

COC1=[C]([Hg][Br])C(OC)OC1OC (centres undefined)
inactive: dose: 5.0 mg/kg/injection, schedule: Q01DX009 (ip), vehicle: saline with Tween-80 89 % of control | dose: 10.0 mg/kg/injection, schedule: Q01DX009 (ip), vehicle: saline with Tween-80 95 % of control

O=c1oc2ccccc2c2c1C(c1ccccc1)C=C(c1ccccc1)O2 (centres undefined)
inactive: [5] 89 % of control | [6] 91 % of control | [7] 92 % of control

CCOC(=O)C(C(=O)OCC)C(C)(C)Cc1ccccc1
inactive: [14] 92 % of control | [15] 100 % of control | [20] 96 % of control | [16] 93 % of control | [21] 93 % of control

O=C1NC2C=CC1/C=C\C=C/2 (centres undefined)
inactive: [17] 96 % of control | [18] 86 % of control

O=C(O)C1CC2c3ccccc3C1c1ccccc12 (centres undefined)
inactive: dose: 25.0 mg/kg/injection, schedule: Q01DX009 (ip), vehicle: Klucel (hydroxypropylcellulose) (HPC) 90 % of control | dose: 50.0 mg/kg/injection, schedule: Q01DX009 (ip), vehicle: Klucel (hydroxypropylcellulose) (HPC) 97 % of control | [14] 104 % of control | [19] 90 % of control

CC1CN=C(c2ccc(O)c(O)c2O)S1 (centres undefined)
inactive: dose: 75.0 mg/kg/injection, schedule: Q04DX002 (ip), vehicle: saline with Tween-80 101 % of control | dose: 150.0 mg/kg/injection, schedule: Q04DX002 (ip), vehicle: saline with Tween-80 101 % of control | dose: 300.0 mg/kg/injection, schedule: Q04DX002 (ip), vehicle: saline with Tween-80 93 % of control

Cc1c(C(C)(C(=O)O)c2c(C)n(C)c3ccccc23)c2ccccc2n1C
inactive: dose: 50.0 mg/kg/injection, schedule: Q01DX001 (ip), vehicle: other 96 % of control | [1] 93 % of control | dose: 200.0 mg/kg/injection, schedule: Q01DX001 (ip), vehicle: other 91 % of control | dose: 400.0 mg/kg/injection, schedule: Q01DX001 (ip), vehicle: other 96 % of control

CSCc1ccc([N+](=O)[O-])cc1
inactive: [14] 103 % of control | [19] 101 % of control | [15] 103 % of control | [20] 106 % of control | [16] 116 % of control | [21] 95 % of control

Cc1ccc(Sc2cccc3c(C)c4cccc5c4c(c23)C[S+]5c2ccc(C)cc2)cc1 (centres undefined)
inactive: dose: 1.56 mg/kg/injection, schedule: Q01DX009 (ip), vehicle: saline with Tween-80 103 % of control | dose: 3.13 mg/kg/injection, schedule: Q01DX009 (ip), vehicle: saline with Tween-80 101 % of control | dose: 6.25 mg/kg/injection, schedule: Q01DX009 (ip), vehicle: saline with Tween-80 103 % of control

CCCCN1C(=O)c2ccccc2C1=O
inactive: dose: 100.0 mg/kg/injection, schedule: Q04DX003 (ip), vehicle: carboxymethylcellulose (CMC) 102 % of control | dose: 200.0 mg/kg/injection, schedule: Q04DX003 (ip), vehicle: carboxymethylcellulose (CMC) 93 % of control | dose: 400.0 mg/kg/injection, schedule: Q04DX003 (ip), vehicle: carboxymethylcellulose (CMC) 101 % of control

CC(=O)CCC(=O)CCC(C)=O
inactive: [17] 93 % of control | [18] 101 % of control | dose: 400.0 mg/kg/injection, schedule: Q04DX002 (ip), vehicle: saline 101 % of control

CC1(C)C(=O)CC[C@@]2(C)C1=CC[C@@H]1[C@@H]2CC[C@@]2(C)[C@H]1CC[C@]2(C)O
inactive: dose: 50.0 mg/kg/injection, schedule: Q01DX Z (sc), vehicle: steriod suspending solution 91 % of control | dose: 250.0 mg/kg/injection, schedule: Q01DX Z (sc), vehicle: steriod suspending solution 96 % of control | dose: 500.0 mg/kg/injection, schedule: Q01DX Z (sc), vehicle: steriod suspending solution 101 % of control

COC1OCCCC1Br (centres undefined)
inactive: [11] 91 % of control | [12] 102 % of control | [13] 107 % of control

CC(C)NCC(O)c1cccc(O)c1 (centres undefined)
inactive: dose: 50.0 mg/kg/injection, schedule: Q04DX003 (ip), vehicle: saline 101 % of control | [11] 98 % of control | [8] 101 % of control | [12] 97 % of control | [9] 104 % of control

S=c1[nH]c2nc(Cl)c(Cl)nc2[nH]1
inactive: dose: 50.0 mg/kg/injection, schedule: Q01DX009 (ip), vehicle: saline with Tween-80 95 % of control | [25] 91 % of control | [5] 97 % of control | [26] 100 % of control | [6] 102 % of control

Source: PubChem BioAssay AID248 (DTP/NCI, 2004)
